# How the values were obtained:
# [1] = tested on: Chrna2 (cholinergic receptor, neuronal nicotinic, alpha polypeptide 2); assay: Chrna2 gene expression in the duodenum of treated ob/ob mice; assay type: in vivo; conditions: p<0.01
# ob/ob mice = assay: Food intake in ob/ob mice after seven days of treatment; assay type: in vivo; conditions: 5 mg/kg/day
compound,measurement,setting,value
"Cc1oc(-c2ccc(C(F)(F)F)cc2)nc1COc1ccc(S(=O)(=O)N2c3ccccc3C[C@@H]2C(=O)O)cc1 [(R)-1-{4-[5-methyl-2-(4-trifluoromethyl-phenyl)-oxazol-4-ylmethoxy]-benzenesulfonyl}-2,3-dihydro-1H-indole-2-carboxylic acid]",Chrna2 expression in the duodenum increased by,[1]; after 1 day of treatment,15 fold
same,Chrna2 expression in the duodenum increased by,[1]; after 2 days of treatment,11 fold
same,Chrna2 expression in the duodenum increased by,[1]; after 7 days of treatment,~140 fold
same,daily food intake down by,"ob/ob mice; by day 7, p<0.01",50%
same,food intake compared to vehicle,ob/ob mice; starting on day 3,significantly lowered food intake

# Source: patent US20070299047A1, “Combination of Organic Compounds” (priority 2004, published 2007)
